The source of these data is patent publication US5602134A, “Positive inotropic and lusitropic pyrroloquinolinone derivatives” (Janssen Pharmaceutica N.V., priority 1993, dated 1997).

Experiment [1] addresses T1, canine heart phosphodiesterase PDE III (Canis lupus familiaris, UniProt A0A8I3NYE0).
T1 construct: canine heart phosphodiesterase PDE III; from tissue; host or cells: canine heart
T1 sequence (A0A8I3NYE0 1-1135): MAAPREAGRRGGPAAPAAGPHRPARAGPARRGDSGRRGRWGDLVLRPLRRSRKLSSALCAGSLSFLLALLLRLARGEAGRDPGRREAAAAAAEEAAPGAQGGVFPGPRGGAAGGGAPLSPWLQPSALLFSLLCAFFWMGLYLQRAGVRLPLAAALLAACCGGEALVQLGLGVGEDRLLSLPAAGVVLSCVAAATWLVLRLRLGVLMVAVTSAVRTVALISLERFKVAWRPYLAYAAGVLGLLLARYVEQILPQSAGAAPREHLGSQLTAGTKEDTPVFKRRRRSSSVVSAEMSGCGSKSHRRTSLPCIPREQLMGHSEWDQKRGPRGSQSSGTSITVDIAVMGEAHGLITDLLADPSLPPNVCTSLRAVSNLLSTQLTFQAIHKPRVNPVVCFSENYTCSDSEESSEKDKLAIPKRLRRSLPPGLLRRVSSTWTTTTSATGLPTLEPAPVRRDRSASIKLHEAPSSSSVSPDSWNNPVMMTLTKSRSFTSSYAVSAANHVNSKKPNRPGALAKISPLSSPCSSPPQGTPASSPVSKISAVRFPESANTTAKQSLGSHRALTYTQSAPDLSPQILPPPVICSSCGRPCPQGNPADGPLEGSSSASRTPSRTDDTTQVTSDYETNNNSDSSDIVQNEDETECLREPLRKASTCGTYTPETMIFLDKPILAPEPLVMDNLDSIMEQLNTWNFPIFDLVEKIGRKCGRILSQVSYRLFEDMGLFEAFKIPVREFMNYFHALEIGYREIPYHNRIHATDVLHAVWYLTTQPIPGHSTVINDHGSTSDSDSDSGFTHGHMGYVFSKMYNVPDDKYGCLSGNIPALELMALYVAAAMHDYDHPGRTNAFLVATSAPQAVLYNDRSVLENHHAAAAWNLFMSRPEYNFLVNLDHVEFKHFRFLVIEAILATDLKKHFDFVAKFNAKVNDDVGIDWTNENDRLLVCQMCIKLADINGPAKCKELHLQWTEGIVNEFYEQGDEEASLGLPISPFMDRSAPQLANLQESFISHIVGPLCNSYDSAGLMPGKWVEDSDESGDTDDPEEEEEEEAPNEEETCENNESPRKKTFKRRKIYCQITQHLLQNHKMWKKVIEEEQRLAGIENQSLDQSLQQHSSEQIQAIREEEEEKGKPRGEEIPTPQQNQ
The experiment can be described thus: Inhibition of Phosphodiesterase Type III (PDE III). The format is biochemical. The following applies: 10 min at 37° C., pH 7.1. As to the method: The positive inotropic and lusitropic effect of the instant compounds was assessed by an in vitro assay system to detect inhibiting effect on the phosphodiesterase type III and in an in vivo experiment in closed-chest anesthetized dogs by monitoring cardiac and haemodynamic effects of an intravenous bolus injection of the instant compounds. […] Inhibition of Phosphodiesterase Type III (PDE III) […] For every preparation,time- and concentration-dependent changes in cyclic nucleotide hydrolysis were measured. […] The enzymatic activity was started by addition of substrate and stopped 10 min later after the tubes were transferred to a waterbath at 100° C. for 40 sec. After the tubes had been cooled to room temperature, alkaline phosphatase (0.25 g/ml) was added and the mixture was left at 37° C. for 20 min. The mixture was subsequently applied to a 1-ml DEAE-Sephadex A-25 column and washed twice with 3 ml of 20 mM Tris-HCl at pH 7.4. The ^3 H-labeled reaction products in the eluate were quantified by liquid scintillation counting. The inhibiting effect of the present compounds on canine heart phosphodiesterase PDE III was measured at different concentrations of the instant compounds. The IC50 values were calculated graphically from the thus obtained inhibition values.

Another experiment concerns Beagle dogs. Description: Positive inotropy and lusitropy, blood pressure and heart rate in anaesthetized closed-chest dogs. The format is in vivo, Beagle dog. The following applies: Canis lupus familiaris, iv, 5 min, 5 min after i.v. administration, n = 3, relative to premedication values. As to the method:
The positive inotropic and lusitropic effect of the instant compounds was assessed by an in vitro assay system to detect inhibiting effect on the phosphodiesterase type III and in an in vivo experiment in closed-chest anesthetized dogs by monitoring cardiac and haemodynamic effects of an intravenous bolus injection of the instant compounds.
Positive Inotropy and Lusitropy, Blood Pressure and Heart Rate in Dogs
The test compound was dissolved in an aqueous glucose solution in a concentration of 1 mg.ml^-1. The experiments were performed on 3 Beagle dogs of either sex and varying age, ranging in body weight from 11 to 18 kg (median 13 kg). The animals were intravenously anaesthetized with a mixture of 0.015 mg.kg^-1 scopolamine and 0.05 mg.kg^-1 lofentanil. The animals were intubated with a cuffed endotracheal tube. Intermittent positive pressure ventilation was performed with a mixture of pressurized air and oxygen (60/40), using a volume-controlled ventilator (Siemens Elema). In the control period the CO2 concentration in the expired air (ET CO2), as determined with a capnograph (Gould Godart), was kept at 5 vol % by adjustment of the respiratory volume (resp. rate=20 breaths.min^-1). A continuous intravenous infusion of 0.5 mg.kg^-1.h^-1 of etomidate was started immediately after induction. Body temperature was monitored with a thermistor positioned in the pulmonary artery. To prevent blood clotting heparin, 1000 IU.kg^-1i.v., was administered.
The electrocardiogram (ECG) was derived from limb leads (standard lead 2). Left ventricular (LVP) and ascending aortic blood pressure (AoP) were measured by retrograde catheterisation via the femoral arteries with high fidelity cathetertip micromanometers (Honeywell). The other femoral vein was cannulated for injection of saline at room temperature into the right atrium and for injection of the test compound. Peak ascending aortic blood flow velocity was measured through the fight carotid artery with an electomagnetic catheter-tip probe connected to a square wave electomagnetic flow meter (Janssen Scientific Instruments). The following variables--inter alia--were calculated on-line, usually at 1 rain intervals: heart rate (HR), diastolic (AoPd) aortic blood pressure, left ventricular end-diastolic pressure (LVEDP), the maximum positive and maximum negative rate of change of isovolumic LVP (LV dp/dtmax and min, respectively), the maximum positive first derivative divided by the actually developed pressure in the left ventricle (LV dp/dtmax /Pd). The time constant (T) of relaxation was measured with the use of an exponential analysis that also estimated the asymptote. After a stabilization period, the animals were treated by intravenous bolus injection of the test compound at 30 min. interval in cumulative doses of 0.0005, 0.001, 0.004, 0.016, 0.064, 0.125 and 0.25 mg/kg.

Where [2] appears, read: read-out: Calculated dose producing a 15% reduction in diastolic aortic blood pressure (AoPD).
The mark [3] stands for this setting: read-out: Calculated dose producing a 15% reduction of total systemic vascular resistance (TSR).
The mark [4] stands for this setting: read-out: Calculated dose producing a 30% increase in cardiac contractility (LV dp/dt max).
The mark [5] stands for this setting: read-out: Calculated dose producing a 30% increase in heart rate (HR).

Molecules are shown by their SMILES. Where a name gives a salt, the structure may show the parent alone. Read-outs that look alike come from different tables or passages of the source.

One may read the IC50 as the concentration needed to halve the response being measured. A lower IC50 goes with greater potency in that assay. In the case of `CCOC(=O)CCCOc1ccc2nc3c(cc2c1)CC(=O)N3` [Compound 1, ethyl 4-[(2,3-dihydro-2-oxo-1H-pyrrolo[2,3-b]quinolin-6-yl]oxy]butanoate], the half-inhibitory concentration (IC50) in experiment [1] worked out at 290 nM. The same measure, in the same setting: the result for `CCOC(=O)CCCCOc1ccc2nc3c(cc2c1)CC(=O)N3` [Compound 2, ethyl 5-[(2,3-dihydro-2-oxo-1H-pyrrolo[2,3-b]quinolin-6-yl]oxy]pentanoate] reads 62 nM; that for `O=C(O)CCCOc1ccc2nc3c(cc2c1)CC(=O)N3` [Compound 3, 4-[(2,3-dihydro-2-oxo-1H-pyrrolo[2,3-b]quinolin-6-yl)oxy]butanoic acid], 330 nM.

In the case of `O=C1Cc2cc3cc(OCCCC(=O)N4CCN(CC5CCCCC5)CC4)ccc3nc2N1` [Compound 5, 1-(cyclohexylmethyl)-4-[4-[(2,3-dihydro-2-oxo-1H-pyrrolo[2,3-b]quinolin-6-yl)oxy]-1-oxobutyl]piperazine], the ED15 in the experiment with Beagle dogs (setting [2]) was greater than 0.25 mg/kg; in the experiment with Beagle dogs (setting [3]), 0.079 mg/kg. The ED30 in the experiment with Beagle dogs (setting [4]) is 0.008 mg/kg; in the experiment on Beagle dogs (setting [5]), 0.033 mg/kg. Moreover, the 50% inhibitory concentration (IC50) in experiment [1] stood at 18 nM. With `O=C1Cc2cc3cc(OCCCCC(=O)N4CCN(CC5CCCCC5)CC4)ccc3nc2N1` [Compound 6], in experiment [1], the IC50 came out at 2.4 nM. As to `O=C1Cc2cc3cc(OCCCCC(=O)NC4CCN(Cc5ccccc5)CC4)ccc3nc2N1` [Compound 7], the IC50 in experiment [1] was 58 nM. On the same count and under the same terms, the value for `CN1CCC(N(C)C(=O)CCCOc2ccc3nc4c(cc3c2)CC(=O)N4)CC1` [Compound 8, 4-[(2,3-dihydro-2-oxo-1H-pyrrolo[2,3-b]quinolin-6-yl)oxy]-N-methyl-N-(1-methyl-4-piperidinyl)butanamide] was 300 nM.

Consider `Cl.O=C1Cc2cc3cc(OCCCCC(=O)N4CCN(CC5CCCCC5)CC4)ccc3nc2N1` [Compound 15, 1-(cyclohexylmethyl)-4-[5-[(2,3-dihydro-2-oxo-1H-pyrrolo[2,3-b]-quinolin-6-yl)oxy]-1-oxopentyl]piperazine monohydrochloride], for which the ED15 with Beagle dogs (setting [2]) was 0.015 mg/kg; in the experiment on Beagle dogs (setting [3]), 0.003 mg/kg. The ED30 in the experiment with Beagle dogs (setting [4]) was 0.002 mg/kg; in the experiment on Beagle dogs (setting [5]) it was 0.028 mg/kg. For the same compound, inhibition in experiment [1] was half-maximal at 1.8 nM (IC50). The compound `O=C1Cc2cc3cc(OCCCC(=O)N4CCN(CC5CCCCC5)CC4)ccc3nc2N1` [Compound 16, 1-(cyclohexylmethyl)-4-[4-[(2,3-dihydro-2-oxo-1H-pyrrolo[2,3-b]quinolin-6-yl)oxy]-1-oxobutyl]piperazine dihydrochloride ethanolate(1:1)] gave a half-inhibitory concentration (IC50) in experiment [1] of 27 nM.

In experiment [1], `CN(C(=O)CCCOc1ccc2nc3c(cc2c1)CC(=O)N3)C1CCCCC1` [Compound 17, N-cyclohexyl-4-[(2,3-dihydro-2-oxo-1H-pyrrolo[2,3-b]quinolin-6-yl)oxy]-N-methylbutanamide hemihydrate] came in with an IC50 of 7.6 nM.
